The text below walks through data of US20230321237A1, “REGULATORY T CELL EPITOPES” (EPIVAX, INC., priority 2020, published 2023).

Series [1] has as its system CD4 T cells in donor PBMC stimulated with Tetanus Toxoid. Type of series: cell-based, human.
The subject of series [2] is Class II HLA alleles HLA-DRB1*0101, *0301, *0401, *0701, *0801, *0901, *1101, *1301, *1501. Kind of series: HLA Binding Assay with soluble HLA molecules (competition with labeled control peptide). Also noted: species or system human. To be noted: FIG. 18. As to the method: HLA Binding Assay. Binding activity was analyzed at EpiVax (Providence, Rhode Island). The binding assay used (Steere A C et al., (2006), J Exp Med, […]:961-73) yielded an indirect measure of peptide-MHC affinity. Soluble HLA molecules were loaded onto a 96-well plate with the unlabeled experimental Tregitopes and labeled control peptide. Once the binding mixture reached steady equilibrium (at 24 hours), the HLA-Tregitope complexes were captured on an ELISA plate coated with anti-human DR antibody and detected with a Europium-linked probe for the label (PerkinElmer, Waltham, MA). Time-resolved fluorescence measuring bound labeled control peptide is assessed by a SpectraMax® M5 unit (Spectramax, Radnor, PA). Binding of experimental Tregitopes was expressed as the percent inhibition of the labeled control peptide ([…]). The percent inhibition values for each experimental Tregitope (across a range of molar concentrations) were used to calculate the concentration at which it inhibits 50% of the labeled control […] specific binding, i.e. the Tregitope's IC50.
Selected experimental Tregitopes were solvated in DMSO. The diluted Tregitopes were then mixed with binding reagents in aqueous buffering solution, yielding a range of final concentrations from 100,000 nM down to 100 nM. […]

In series [3] the target is T1, Recombinant human cathepsin B (Homo sapiens, UniProt P07858).
T1 construct: purchased R&D Systems 953-CY
Kind of series: Cathepsin B cleavage of the Val-Cit site. To be noted: 0.01 ug rhCathepsin B, 10 uM peptide substrate, RT 15 min, mass spec. Type of series: biochemical. As to the method: Recombinant human cathepsin B (catalog 953-CY of R&D Systems™) can be used to evaluate the cleavage of the Val-Cit site engineered into the Tregitope peptide. The activity assay protocol can be used according to the R&D Systems™'s recommendations with final assay conditions of 0.01 ug rhCathepsin B and 10 uM of peptide substrate. After incubation of Cathepsin B with purified peptides (at RT for 15 min). The peptide can be evaluated by mass spec using the Qstar XL Pro™.

Series [4] deals with PBMCs from lupus patients. To be noted: cited from earlier work.
The subject of series [5] is soluble HLA class II molecules (human DR molecules). Particulars: cited from earlier work.
The test system of series [6] is CD4+ effector memory T cells in PBMC. Type of series: cell-based, human.
For series [7] the following is noted: CRIM-negative infantile Pompe disease patients; cited from earlier work.

For AAALVSLATAALLGHI [SEQ ID NO: 3], the “effect on CD4 proliferation” value in series [1] was “little effect”. Turning to “AHGVFLLNSNAMDVVLQ (listed as Homo sapiens) [SEQ ID NO: 5]”, the “ratio of T regulatory cells to T effector cells” value in series [1] is on record as “good ratios”.

As to “ILTIHFTGHSFIYGK (listed as Homo sapiens) [SEQ ID NO: 74, known Tregitope used as positive control in the TTBSA, reference compound]”, in series [1], the “inhibition of CD4 T cell proliferation (CFSE low)” value is recorded as “successfully inhibit” and the “proliferation of regulatory T cells” value is reported as “increased proliferation”. As for “KDILTLRLDVMMETE (listed as Homo sapiens) [SEQ ID NO: 4]”, the “effect on CD4 proliferation” value in series [1] is “little effect”. For the same substance, the “initial HLA binding results compared with prediction” value in series [2] is listed as “high false negative”. Consider PEG12, for which the “cleavage of the Val-Cit site by Cathepsin B” value in series [3] is listed as “successful cleavage”. Turning to “PRELSGSSPVLEETH (listed as Homo sapiens) [SEQ ID NO: 7]”, in series [1], the Tregitope suppressive activity result was “demonstrated Tregitope suppressive activity”, the “effect on CD4 proliferation” value was “little effect” and the “inhibition of CD4 T cell proliferation (CFSE low)” value was “little effect”. As to RIHMVYSKRSGKPRGYAFIEY [peptide 131-151], the “randomly selected lupus patients whose PBMCs contain T cells that proliferate in response to the peptide” value in series [4] was 40%. In addition, the “binding to human DR molecules” value in series [5] is on record as “binds to a large panel of human DR molecules”.

Regarding “SHRLLAVCALVSLATAA (listed as Homo sapiens) [SEQ ID NO: 1]”, the “suppression of activated effector CD4+ T cells (CD4+/CD25hi/FoxP3int) reacting to Tetanus Toxoid” value in series [6] is on record as “Suppressed”. Besides, the “ratio of T regulatory cells to T effector cells” value in series [1] is listed as “best ratios”. As for “Tetanus Toxoid: proliferation stimulant (Astarte Biologics) in the TTBSA [reference compound]”, in series [6], the “activated (CD25 high) CD4 T cells also proliferating (CFSE low)” value is given as “approximately 90%”. Moreover, the “CD4 proliferation caused by the stimulant” value in series [1] is on record as “caused CD4 proliferation”. Take “rhGAA: recombinant human acid alpha-glucosidase for enzyme replacement therapy”: in series [7], the “antibody titers reactive to administered rhGAA” value is “high antibody titers”.
